In patent publication US11865098B1, “Methods and compositions for treating excessive sleepiness” (Axsome Malta Ltd., priority 2017, dated 2024):

Key:
[1] = tested on: adult patients with OSA and ES; test: FOSQ-10, 12-week parallel study in OSA; type: in vivo, human
Experimental: The study was a 12-week, double-blind, placebo-controlled, parallel design study as described in greater detail in Example 1 (Schweitzer et al., Sleep 40(Abstract Supplement):A237. Abstract 0641 (2017)). Patients were randomized (1:1:2:2:2) to APC 37.5, 75, 150, 300 mg, or placebo for 12 weeks, and were stratified by adherence or non-adherence with primary OSA therapy (adherent definition was use for ≥4 hours per night on >70% of nights). Two patient-reported measures were included as secondary efficacy outcomes to evaluate the effects of APC on functional status and work productivity and activity impairment at baseline and weeks 1, 4, 8, and 12. The Functional Outcomes of Sleep questionnaire short version (FOSQ-10) (Chasens et al., Sleep 32(7):915 (2009)) evaluated the effects of ES on functioning. The Work Productivity and Activity Impairment questionnaire for Specific Health Problems (WPAI:SHP) (Reilly et al., Pharmacoeconomics 4(5):353 (1993); Reilly, Work Productivity and Activity Impairment Questionnaire: Specific Health Problem V2.0 (WPAI: SHP). www.reillyassociates.net/WPAI_SHP) evaluated work productivity impairment among employed patients and overall activity impairment outside of work among all patients for the past 7 days. Four outcomes are available from the WPAI:SHP: Absenteeism (percent work time missed due to health); Presenteeism (percent impairment while working due to health); Percent overall work impairment (calculated from absenteeism and presenteeism); and Percent activity impairment due to health. The FOSQ-10 was evaluated as change over time compared with placebo (least squares (LS) mean); the 4 WPAI outcomes were evaluated at week 12 compared to placebo. Efficacy analyses were based on the modified intent-to-treat population (mITT) and there was no multiplicity adjustment for the FOSQ-10 or WPAI:SHP. Safety and tolerability were assessed based on treatment-emergent adverse events (TEAEs), vital signs, electrocardiogram test, physical exams, Columbia-Suicide Severity Rating Scale, and laboratory tests in the safety population.

[2] = tested on: adult patients with OSA and ES; test: SF-36v2 health-related quality of life, 12-week parallel study in OSA; type: in vivo, human; settings: week 12
Experimental: This was a 12-week, double-blind, placebo-controlled, parallel-design study. Patients were randomized (1:1:2:2:2) to APC 37.5 mg, 75 mg, 150 mg, or 300 mg, or placebo for 12 weeks, and were stratified by adherence or nonadherence with primary OSA therapy.
The SF-36 v2 consists of 2 summary scales (Physical Component Summary and Mental Component Summary) and 8 specific health status domains (Physical Function, Role Physical, Bodily Pain, General Health, Vitality, Social Functioning, Role Emotional, Mental Health) (Ware Jr et al., User's Manual for the SF-36v2™ Health Survey (2nd ed). QualityMetric Incorporated (Lincoln, RI); 2007). The EQ-5D-5L consists of 5 questions/dimensions (Mobility, Self-care, Usual Activities, Pain/Discomfort, and Anxiety/Depression) that have 5 response levels each (no problems, slight problems, moderate problems, severe problems, and extreme problems/unable to do) that are used to derive an overall EQ-5D-5L index score (0=death, 1=perfect health), and a health status visual analog scale (VAS) that is anchored at 0 with “the worst health you can imagine” and at 100 with “the best health you can imagine.” (The EuroQol Group. EQ-5D-5L User Guide. Version 2.1. April 2015. www.eurogol.org/fileadmin/user_upload/Documenten/PDF/Folders_Flyers/EQ-5D-5L_UserGuide_2015.pdf)
Efficacy analyses were based on the modified intent-to-treat (mITT) population; there was no multiplicity adjustment for the SF-36 v2 or EQ-5D-5L. SF-36 v2 scores were scaled from 0 to 100 (higher scores on all scales represent better health), transformed to norm-based scores using US general-population data from SF-36 Manuals (Ware Jr et al., User's Manual for the SF-36v2™ Health Survey (2nd ed.). QualityMetric Incorporated (Lincoln, RI); 2007), and were analyzed using a mixed-effect model with repeated measures (MMRM); and baseline value of the efficacy endpoint was used to determine differences in changes from baseline. EQ-5D-5L VAS and index-score data were analyzed using an MMRM model. Safety and tolerability were assessed based on treatment-emergent adverse events (TEAEs), vital signs, electrocardiogram test, physical exams, and laboratory tests.

NC(=O)OC[C@H](N)Cc1ccccc1 [JZP-110, (R)-2-amino-3-phenylpropyl carbamate]
FOSQ-10 scores at week 12 ([1]; 37.5 to 300 mg, mITT): dose dependently increased FOSQ-10 scores
FOSQ-10, time at which improvements were observed ([1]; 150 and 300 mg doses): as early as week 1
FOSQ-10 scores at week 12, effect relative to placebo ([1]; 150 and 300 mg doses): statistically significant effects
SF-36v2 Role Physical, General Health, Social Functioning, Role Emotional vs placebo ([2]; 150 mg): significantly greater changes from baseline relative to placebo
SF-36v2 Role Physical and Vitality domains and Physical Component Summary Scale vs placebo ([2]; 300 mg): significantly greater improvements relative to placebo
SF-36v2 Mental Component Summary scores vs placebo ([2]; 37.5, 75, 150 mg similar): only APC 150 mg reaching statistical significance
SF-36v2 Vitality domain, response vs MCID ([2]; 75, 150, and 300 mg): exceeded the MCID
SF-36v2 Physical Component Summary Scale, increase vs placebo ([2]; 150 and 300 mg): statistically significant
SF-36v2 Vitality domain vs placebo ([2]; 150 and 300 mg): statistically significant improvements relative to placebo
SF-36v2 Physical and Mental Component Summary changes vs MCID [2]: did not exceed the minimal clinically important difference
